The values that follow come from patent US20250090528A1, “USE OF COMPLEMENT FACTOR D INHIBITOR FOR TREATMENT OF LUPUS NEPHRITIS AND IMMUNOGLOBULIN A NEPHROPATHY” (Alexion Pharmaceuticals, Inc., priority 2021, published 2025).

The subject of one series is lupus nephritis. Particulars: LN patients, cited from earlier work.
Series [1] in a line: Single-ascending and multiple-ascending dose clinical PK studies in healthy volunteers. Type of series: in vivo, human. The text has this:
Clinical pharmacokinetics (PK) and PD data have been generated for ALXN2050 in single-ascending and multiple-ascending dose studies in healthy volunteers.

For series [2], the system named is alternative pathway (AP) activity. Briefly: PD activity: AP inhibition in the AP Wieslab assay after multiple-dose administration in healthy participants. In kind it is in vivo, human. The method, then:
The 120 mg BID dosing regimen provided sustained AP inhibition (AP activity <10%) in healthy participants whose ALXN2050 concentrations achieved the 90% inhibitory concentration (IC90) threshold through the 12-hour dosing periods. Therefore, 120 mg BID is selected as the minimum therapeutic dose. […] Therefore, the 180 mg BID is selected as the likely therapeutic dose.
(§1) In addition, both dosage regimens provided complete (>90%) and sustained inhibition of AP activity throughout the 12-hour dosing interval. Therefore, 120 mg BID is selected as the minimum therapeutic dosage.

The nature of series [3]: Multiple ascending dose study: safety and safety margin versus NOAEL exposures from nonclinical chronic toxicology studies. Conditions: 120 and 200 mg BID. Type of series: in vivo, human. The method, then:
as §1

The mark [4] stands for this setting: NOAEL from nonclinical chronic toxicology studies.

Like-named read-outs stand apart in the source and are kept apart here.

As for `C=C/C=C/C[C@@H](C)[C@@H](O)[C@H]1C(=O)N[C@@H](CC)C(=O)N(C)CC(=O)N(C)[C@@H](CC(C)C)C(=O)N[C@@H](C(C)C)C(=O)N(C)[C@@H](CC(C)C)C(=O)N[C@@H](C)C(=O)N[C@H](C)C(=O)N(C)[C@@H](CC(C)C)C(=O)N(C)[C@@H](CC(C)C)C(=O)N(C)[C@@H](C(C)C)C(=O)N1C` [voclosporin], the CRR in the series on lupus nephritis (at one year, placebo 22.5%) is recorded as 40.8%.
As to “belimumab: approved in the US for the treatment of LN”, the CRR in the series on lupus nephritis (at two years, placebo 20.0%) is 30.0%.
On to `CC(=O)c1nn(CC(=O)N2[C@H](C(=O)Nc3nc(Br)ccc3C)C[C@@]3(C)C[C@@H]23)c2ccc(-c3cnc(C)nc3)cc12` [ALXN2050], for which, in series [1], the “intersubject variability in PK” value is reported as “Large intersubject variability”. Besides, the “increase in systemic exposure with dose” value in series [1] (multiple-dose administration at steady state (Days 7 and 14), 40 mg BID to 200 mg BID) is “greater than dose-proportional increase”. Besides, the “increase in systemic exposure with dose” value in series [1] (single-dose administration) is listed as “dose-proportional increase”. The “inhibition of AP activity (complete and sustained)” value in series [2] (120 and 200 mg BID, throughout the 12-hour dosing interval) is recorded as > 90%. In addition, in series [2] (Homo sapiens, 120 mg BID, participants whose concentrations achieved the IC90 threshold through the 12-hour dosing periods, read-out: AP activity (sustained AP inhibition)), the activity at 120 mg is < 10%. Moreover, in series [2] (multiple-dose 40 mg BID to 200 mg BID, healthy participants), the “PD activity (AP inhibition in the AP Wieslab assay)” value is listed as “increased with increasing dose”. Moreover, the “safety and efficacy of dose regimens” value in series [3] (multiple ascending dose study) is “safe and effective”. Besides, in series [3] (setting [4]), the “safety margin in AUC0-24 versus exposures at NOAEL” value is on record as ≥ 10 fold and the “safety margin in maximum plasma concentration (Cmax) versus exposures at NOAEL” value is reported as ≥ 10 fold.
